Results reported in patent publication US7524964B2, “Tetrahydrothiopyrano pyrazole cannabinoid modulators” (Janssen Pharmaceutica NV, priority 2005, dated 2009).

Experiments:
human CB-2 receptor = target: T1, human CB-2 receptor (Homo sapiens, UniProt P34972); experiment: Binding assay, cannabinoid CB2 receptor ([3H]-CP-55,940 displacement); conditions: for inhibition at 1 µM: test concentration 1 μM (superscript b)
T1 construct: expressed in transfected cells; host or cells: SK-N-MC cells, pcDNA3 CB-2 (human), semi-purified membranes
T1 sequence (P34972 whole entry): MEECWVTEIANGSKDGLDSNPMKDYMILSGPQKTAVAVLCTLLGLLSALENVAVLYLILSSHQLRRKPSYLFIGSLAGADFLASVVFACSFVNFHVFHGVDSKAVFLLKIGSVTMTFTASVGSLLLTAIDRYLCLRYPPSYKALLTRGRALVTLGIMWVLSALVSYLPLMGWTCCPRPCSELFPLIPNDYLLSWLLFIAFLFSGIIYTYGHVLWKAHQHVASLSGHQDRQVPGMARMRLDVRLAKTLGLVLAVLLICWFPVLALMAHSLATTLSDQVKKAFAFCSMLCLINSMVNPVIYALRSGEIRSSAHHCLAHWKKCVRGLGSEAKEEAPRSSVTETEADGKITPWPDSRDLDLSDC
Description: (§1) Binding Assay for CB1 or CB2 Agonists or Inverse Agonists
(§2) The human CB-1 and CB-2 receptors were stably expressed in SK-N-MC cells transfected with pcDNA3 CB-1 (human) or pcDNA3 CB-2 (human). The cells were grown in T-180 cell culture flasks under standard cell culture conditions at 37° C. in a 5% CO2 atmosphere. The cells were harvested by trypsinization and homogenized in a homogenization buffer (10 mM Tris, 0.2 mM MgCl2, 5 mM KCl, with protease inhibitors aprotinin, leupeptin, pepstatin A and bacitracin) and centrifuged (2000 g). The supernatant was then centrifuged in 2M sucrose (31,300 g) to produce a semi-purified membrane pellet. The pellet was resuspended in homogenization and store at −80° C.
(§3) On the day of the assay, the pellet was thawed on ice and diluted in assay buffer (50 mM Tris-HCl, 5 mM MgCl2, 2.5 mM EDTA, 0.5 mg/mL fatty acid free bovine serum albumin, pH 7.5). The diluted membrane was added with buffer, test compound or standard and the radioligand [H]^3+-CP-55,940_(0.2 nM) to the wells of a 96-well polypropylene plate. Non-specific binding was measured in wells containing 10 uM WIN 55,212. The plate was covered and incubated for 90 minutes at 30° C. The contents were then aspirated onto a Packard Unifilter G/C filter bottom plate prewet with 0.5% polyethyleneimine. The wells of the polypropylene plate were rinsed and aspirated seven times with a 0.9% saline-0.5% Tween 20 solution. The Unifilter plate was dried, a scintillation cocktail was added to each well and the counts representing binding were quantitated in a TopCount scintillation counter.
(§4) The IC50 binding values for compounds tested were calculated by linear regression and were obtained from studies in which varying compound concentrations were used. Where an IC50 was not obtained, test results are provided as percent inhibition at a test concentration of ^a0.2 μM, ^b1 μM or ^c10 μM.

human CB1 receptor = human CB1 receptor (Homo sapiens, UniProt P21554); experiment: Binding assay, cannabinoid CB1 receptor ([3H]-CP-55,940 displacement); set-up: expressed in transfected cells; host or cells: SK-N-MC cells, pcDNA3 CB-1 (human), semi-purified membranes; conditions: read-out: CB1 binding percent inhibition; for inhibition at 1 µM: test concentration 1 μM (superscript b); for inhibition at 10 µM: test concentration 10 μM (superscript c)
Chain of human CB1 receptor (P21554 whole entry): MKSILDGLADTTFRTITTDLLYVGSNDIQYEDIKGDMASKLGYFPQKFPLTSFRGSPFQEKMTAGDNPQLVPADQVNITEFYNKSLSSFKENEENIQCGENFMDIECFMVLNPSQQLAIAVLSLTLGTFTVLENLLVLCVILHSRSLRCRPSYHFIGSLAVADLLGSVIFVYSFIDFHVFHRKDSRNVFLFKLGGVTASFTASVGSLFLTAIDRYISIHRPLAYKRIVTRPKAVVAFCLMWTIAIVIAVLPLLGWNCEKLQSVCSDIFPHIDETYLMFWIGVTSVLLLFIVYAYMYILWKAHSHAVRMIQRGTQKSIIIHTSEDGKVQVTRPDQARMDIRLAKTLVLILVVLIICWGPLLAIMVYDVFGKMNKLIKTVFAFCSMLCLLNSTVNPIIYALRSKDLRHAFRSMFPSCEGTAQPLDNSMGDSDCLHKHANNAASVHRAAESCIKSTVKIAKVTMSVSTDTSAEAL
Description: as §1, §2, §3, §4

[1] = read-out: CB2 binding percent inhibition
[2] = test concentration 10 μM (superscript c), read-out: CB2 binding percent inhibition

Row | SMILES | inhibition at 1 µM (human CB-2 receptor; [1]) [%] | inhibition at 1 µM (human CB1 receptor) [%] | further results
1 | C[C@@H](NS(=O)(=O)/C=C/c1c2c(nn1Cc1ccccc1)CCSC2)c1ccccc1 [Cpd 2, (E)-2-(2-benzyl-2,4,6,7-tetrahydro-thiopyrano[4,3-c]pyrazol-3-yl)-ethenesulfonic acid [(1R)-1-phenyl-ethyl]-amide] | 0 | 13 | –
2 | C[C@@H](NS(=O)(=O)/C=C/c1c2c(nn1Cc1ccccc1)CCS(=O)(=O)C2)c1ccccc1 [Cpd 4, (E)-2-(2-benzyl-5,5-dioxo-4,5,6,7-tetrahydro-2H-5λ^6-thiopyrano[4,3-c]pyrazol-3-yl)-ethenesulfonic acid [(1R)-1-phenyl-ethyl]-amide] | 0 | 12 | –
3 | C[C@H](NS(=O)(=O)/C=C/c1c2c(nn1Cc1ccccc1)CCSC2)c1ccccc1 [Cpd 5, (E)-2-(2-benzyl-2,4,6,7-tetrahydro-thiopyrano[4,3-c]pyrazol-3-yl)-ethenesulfonic acid [(1S)-1-phenyl-ethyl]-amide] | 9 | 9 | –
4 | C[C@@H](NS(=O)(=O)/C=C/c1c2c(nn1Cc1ccccc1)CCSC2)C1CCCCC1 [Cpd 6, (E)-2-(2-benzyl-2,4,6,7-tetrahydro-thiopyrano[4,3-c]pyrazol-3-yl)-ethenesulfonic acid [(1R)-1-cyclohexyl-ethyl]-amide] | 0 | 16 | –
5 | C[C@@H](NS(=O)(=O)/C=C/c1nn(Cc2ccccc2)c2c1CSCC2)c1ccccc1 [Cpd 7, (E)-2-(1-benzyl-1,4,6,7-tetrahydro-thiopyrano[4,3-c]pyrazol-3-yl)-ethenesulfonic acid [(1R)-1-phenyl-ethyl]-amide] | 44 | 15 | –
6 | C[C@H](NS(=O)(=O)/C=C/c1c2c(nn1Cc1ccccc1)CCSC2)C1CCCCC1 [Cpd 8] | 5 | 8 | –
7 | C[C@@H](NS(=O)(=O)/C=C/c1nn(Cc2ccccc2)c2c1CS(=O)(=O)CC2)c1ccccc1 [Cpd 9, (E)-2-(1-benzyl-5,5-dioxo-4,5,6,7-tetrahydro-1H-5λ^6-thiopyrano[4-3-c]pyrazol-3-yl)-ethenesulfonic acid [(1R)-1-phenyl-ethyl]-amide] | 6 | 6 | –
8 | C[C@H](NS(=O)(=O)/C=C/c1c2c(nn1Cc1ccccc1)CCS(=O)(=O)C2)c1ccccc1 [Cpd 10, (E)-2-(2-benzyl-5,5-dioxo-4,5,6,7-tetrahydro-2H-5λ^6-thiopyrano[4,3-c]pyrazol-3-yl)-ethenesulfonic acid [(1S)-1-phenyl-ethyl]-amide] | 36 | 0 | –
9 | C[C@@H](NS(=O)(=O)/C=C/c1nn(Cc2ccccc2)c2c1CSCC2)C1CCCCC1 [Cpd 11, (E)-2-(1-benzyl-1,4,6,7-tetrahydro-thiopyrano[4,3-c]pyrazol-3-yl)-ethenesulfonic acid [(1R)-1-cyclohexyl-ethyl]-amide] | 39 | 29 | –
10 | C[C@H](NS(=O)(=O)/C=C/c1nn(Cc2ccccc2)c2c1CSCC2)C1CCCCC1 [Cpd 12, (E)-2-(1-benzyl-1,4,6,7-tetrahydro-thiopyrano[4,3-c]pyrazol-3-yl)-ethenesulfonic acid [(1S)-1-cyclohexyl-ethyl]-amide] | 42 | 15 | –
11 | C[C@@H](NS(=O)(=O)/C=C/c1nn(Cc2ccccc2)c2c1CS(=O)(=O)CC2)C1CCCCC1 [Cpd 14, (E)-2-(1-benzyl-5,5-dioxo-4,5,6,7-tetrahydro-1H-5λ^6-thiopyrano[4,3-c]pyrazol-3-yl)-ethenesulfonic acid [(1R)-1-cyclohexyl-ethyl]-amide] | 0 | 0 | –
12 | C[C@H](NS(=O)(=O)/C=C/c1nn(Cc2ccccc2)c2c1CS(=O)(=O)CC2)C1CCCCC1 [Cpd 15, (E)-2-(1-benzyl-5,5-dioxo-4,5,6,7-tetrahydro-1H-5λ^6-thiopyrano[4,3-c]pyrazol-3-yl)-ethenesulfonic acid [(1S)-1-cyclohexyl-ethyl]-amide] | 0 | 4 | –
13 | C[C@@H](NS(=O)(=O)/C=C/c1c2c(nn1Cc1ccccc1)CCS(=O)(=O)C2)C1CCCCC1 [Cpd 16, (E)-2-(2-benzyl-5,5-dioxo-4,5,6,7-tetrahydro-2H-5λ^6-thiopyrano[4,3-c]pyrazol-3-yl)-ethenesulfonic acid [(1R)-1-cyclohexyl-ethyl]-amide] | 0 | 0 | –
14 | C[C@H](NS(=O)(=O)/C=C/c1c2c(nn1Cc1ccccc1)CCS(=O)(=O)C2)C1CCCCC1 [Cpd 17, (E)-2-(2-benzyl-5,5-dioxo-4,5,6,7-tetrahydro-2H-5λ^6-thiopyrano[4,3-c]pyrazol-3-yl)-ethenesulfonic acid [(1S)-1-cyclohexyl-ethyl]-amide] | 24 | 0 | –
15 | C[C@H](NS(=O)(=O)/C=C/c1nn(Cc2ccccc2)c2c1CS(=O)(=O)CC2)c1ccccc1 [Cpd 18, (E)-2-(1-benzyl-5,5-dioxo-4,5,6,7-tetrahydro-1H-5λ^6-thiopyrano[4,3-c]pyrazol-3-yl)-ethenesulfonic acid [(1S)-1-phenyl-ethyl]-amide] | 40 | 0 | –
16 | CC(NS(=O)(=O)/C=C/c1c2c(nn1Cc1ccccc1)CC[S+]([O-])C2)c1ccccc1 (stereo not shown) [Cpd 22, (E)-2-(2-benzyl-5-oxo-4,5,6,7-tetrahydro-2H-5λ^4-thiopyrano[4,3-c]pyrazol-3-yl)-ethenesulfonic acid (1-phenyl-ethyl)-amide] | 0 | 11 | inhibition at 10 µM (human CB-2 receptor; [2]): 2%; inhibition at 10 µM (human CB1 receptor): 0%
17 | CC(NS(=O)(=O)/C=C/c1c2c(nn1Cc1ccccc1)CC[S+]([O-])C2)C1CCCCC1 (stereo not shown) [Cpd 26, (E)-2-(2-benzyl-5-oxo-4,5,6,7-tetrahydro-2H-5λ^4-thiopyrano[4,3-c]pyrazol-3-yl)-ethenesulfonic acid (1-cyclohexyl-ethyl)-amide] | – | – | CB2 binding percent inhibition (human CB-2 receptor; test concentration 10 μM (superscript c), 10 µM): 32%; inhibition at 10 µM (human CB-2 receptor; [2]): 22%
18 | CC(NS(=O)(=O)/C=C/c1nn(Cc2ccccc2)c2c1C[S+]([O-])CC2)c1ccccc1 (stereo not shown) [Cpd 29, (E)-2-(1-benzyl-5-oxo-4,5,6,7-tetrahydro-1H-5λ^4-thiopyrano[4,3-c]pyrazol-3-yl)-ethenesulfonic acid (1-phenyl-ethyl)-amide] | – | – | inhibition at 10 µM (human CB1 receptor): 8%
19 | C[C@H](NC(=O)/C=C/c1nn(Cc2ccccc2)c2c1CSCC2)c1ccccc1 [Cpd 32, (2E)-3-(1-benzyl-1,4,6,7-tetrahydro-thiopyrano[4,3-c]pyrazol-3-yl)-N-[(1S)-1-phenyl-ethyl]-acrylamide] | – | – | inhibition at 10 µM (human CB-2 receptor; [2]): 47%; inhibition at 10 µM (human CB1 receptor): 35%
20 | C[C@H](NC(=O)/C=C/c1nn(Cc2ccccc2)c2c1C[S+]([O-])CC2)c1ccccc1 (stereo partly drawn) [Cpd 34, (2E)-3-(1-benzyl-5-oxo-4,5,6,7-tetrahydro-1H-5λ^4-thiopyrano[4,3-c]pyrazol-3-yl)-N-[(1S)-1-phenyl-ethyl]-acrylamide] | – | – | inhibition at 10 µM (human CB-2 receptor; [2]): 21%; inhibition at 10 µM (human CB1 receptor): 11%
21 | C[C@@H](NC(=O)/C=C/c1nn(Cc2ccccc2)c2c1C[S+]([O-])CC2)c1ccccc1 (stereo partly drawn) [Cpd 35, (2E)-3-(1-benzyl-5-oxo-4,5,6,7-tetrahydro-1H-5λ^4-thiopyrano[4,3-c]pyrazol-3-yl)-N-[(1R)-1-phenyl-ethyl]-acrylamide] | – | – | inhibition at 10 µM (human CB-2 receptor; [2]): 28%; inhibition at 10 µM (human CB1 receptor): 4%
22 | C[C@H](NC(=O)/C=C/c1nn(Cc2ccccc2)c2c1CS(=O)(=O)CC2)c1ccccc1 [Cpd 36, (2E)-3-(1-benzyl-5,5-dioxo-4,5,6,7-tetrahydro-1H-5λ^6-thiopyrano[4,3-c]pyrazol-3-yl)-N-[(1S)-1-phenyl-ethyl]-acrylamide] | – | 25.5 | inhibition at 10 µM (human CB1 receptor): 1%
23 | C[C@@H](NC(=O)/C=C/c1nn(Cc2ccccc2)c2c1CS(=O)(=O)CC2)c1ccccc1 [Cpd 37, (2E)-3-(1-benzyl-5,5-dioxo-4,5,6,7-tetrahydro-1H-5λ^6-thiopyrano[4,3-c]pyrazol-3-yl)-N-[(1R)-1-phenyl-ethyl]-acrylamide] | – | – | inhibition at 10 µM (human CB-2 receptor; [2]): 7%; inhibition at 10 µM (human CB1 receptor): 11%
24 | C[C@H](NS(=O)(=O)/C=C/c1nn(-c2ccc(F)cc2F)c2c1CSCC2Cc1cccc(F)c1)c1ccccc1 (stereo partly drawn) [Cpd 38, (E)-2-[1-(2,4-difluoro-phenyl)-7-(3-fluoro-benzyl)-1,4,6,7-tetrahydro-thiopyrano[4,3-c]pyrazol-3-yl]-ethenesulfonic acid [(1S)-1-phenyl-ethyl]-amide] | – | – | inhibition at 0.2 µM (human CB-2 receptor; test concentration 0.2 μM (superscript a), read-out: CB2 binding percent inhibition): 15%; inhibition at 0.2 µM (human CB1 receptor; test concentration 0.2 μM (superscript a)): 28%
